Measurements from patent publication US10118892B2, “Compounds and their synthesis” (UCL BUSINESS PLC, priority 2012, dated 2018).

Columns and labels:
[1] = Biodistribution studies: blood and brain uptake of radiotracer over time; format: in vivo, Balb/C or FVB mice; settings: mice
Protocol: (§1) A series of radiolabelled tracers was prepared using the reported chemistry and investigated in vivo (Balb/C or FVB mice) by biodistribution studies and/or metabolite analysis. Examples in FIGS. 7-10 highlight the versatility of the reported chemistry that allows for tracers with a variety of backbone structures and side chains. By deliberately modifying chemical moieties the tracer can be fine-tuned towards up-take in tissues of interest, e.g. brain, heart or lungs. FIGS. 11-15 show the results of the in vivo investigation of a potential pro-drug tracer that was developed to monitor the efflux pump P-glycoprotein at the blood-brain barrier.
Female Balb/C mice and FVB mice were obtained from Charles River UK. When used, they were eight to eleven weeks old and weighing approximately 20 g. […]
(§2) The respective radiotracer (0.5-1 MBq formulated in a saline solution containing 5% ethanol) was administered intravenously into the tail vein. […] The organs of interest (blood, colon, stomach, spleen, kidneys, liver, heart, lungs, tail, femur, skull, and brain) were sampled, weighed, and the radioactivity content was measured by automated gamma counting (Cobra Multi Gamma Model 5010-Packard, UK). Results were normalised to the radioactivity found in 1% of the injected dose per gram bodyweight. All experiments were performed in duplicates or triplicates and analysed using Microsoft Office Excel 2007.

[2] = target: T1, P-glycoprotein at the blood-brain barrier (Mus musculus, UniProt P21447); assay: Biodistribution with P-glycoprotein activity inhibited by concomitant tariquidar (TQD); format: in vivo, Balb/C or FVB mice; settings: mice, with and without TQD (FIG. 15)
T1 construct: investigated in vivo (Balb/C or FVB mice) by biodistribution studies and/or metabolite analysis; tissue Charles River UK; host or cells: living Balb/C or FVB mice; blood-brain barrier / brain
T1 sequence (P21447 whole entry): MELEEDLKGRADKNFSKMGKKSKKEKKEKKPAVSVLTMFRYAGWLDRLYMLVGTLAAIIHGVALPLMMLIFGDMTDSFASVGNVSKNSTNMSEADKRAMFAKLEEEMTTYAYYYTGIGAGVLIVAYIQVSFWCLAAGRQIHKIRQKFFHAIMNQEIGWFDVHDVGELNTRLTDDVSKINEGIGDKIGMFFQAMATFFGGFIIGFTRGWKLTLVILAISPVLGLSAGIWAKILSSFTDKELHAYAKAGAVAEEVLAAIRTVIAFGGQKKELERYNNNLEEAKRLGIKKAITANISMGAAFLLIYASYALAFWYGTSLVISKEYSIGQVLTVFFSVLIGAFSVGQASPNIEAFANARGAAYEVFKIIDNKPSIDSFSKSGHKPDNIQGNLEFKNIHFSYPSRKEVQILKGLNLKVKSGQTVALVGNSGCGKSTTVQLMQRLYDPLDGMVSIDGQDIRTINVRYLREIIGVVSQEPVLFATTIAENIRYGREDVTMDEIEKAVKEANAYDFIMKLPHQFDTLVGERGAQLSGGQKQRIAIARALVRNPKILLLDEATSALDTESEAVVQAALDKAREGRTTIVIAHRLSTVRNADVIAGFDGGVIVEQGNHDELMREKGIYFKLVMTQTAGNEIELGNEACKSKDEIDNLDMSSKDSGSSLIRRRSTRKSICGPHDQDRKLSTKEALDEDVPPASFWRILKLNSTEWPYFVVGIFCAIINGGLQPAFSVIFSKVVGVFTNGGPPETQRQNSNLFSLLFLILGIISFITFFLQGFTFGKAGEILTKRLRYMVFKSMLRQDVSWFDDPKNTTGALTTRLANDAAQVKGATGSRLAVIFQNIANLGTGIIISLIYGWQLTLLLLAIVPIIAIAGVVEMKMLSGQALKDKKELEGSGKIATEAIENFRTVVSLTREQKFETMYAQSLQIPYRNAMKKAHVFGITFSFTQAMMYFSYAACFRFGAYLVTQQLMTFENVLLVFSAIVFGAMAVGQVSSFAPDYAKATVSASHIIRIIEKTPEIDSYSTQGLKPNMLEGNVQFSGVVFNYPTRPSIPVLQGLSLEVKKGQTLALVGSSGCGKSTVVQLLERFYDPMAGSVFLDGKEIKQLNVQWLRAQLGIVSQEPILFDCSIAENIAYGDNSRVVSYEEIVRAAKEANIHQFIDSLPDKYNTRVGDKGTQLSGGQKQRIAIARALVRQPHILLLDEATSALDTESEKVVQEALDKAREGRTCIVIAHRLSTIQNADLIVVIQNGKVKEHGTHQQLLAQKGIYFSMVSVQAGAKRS
Protocol: as §1, with “barrier. […]” for “barrier.”
as §2
Brains were homogenised in saline (0.5 ml) and ethanol (0.5 ml). […] The flow rate was 1 ml/min and the UV absorbance detector was set at 254 nm. […]

brain uptake ([1]; intravenous into tail vein, uptake over time (FIG. 15)): high brain uptake
brain to blood ratio ([1]; intravenous, FIG. 15, suitable for nuclear imaging): good brain to blood ratio
Compound: OCCCCN1CCC(=C(c2ccccc2)c2ccc(F)cc2)CC1 [Compound [^18F]6]
wash-out of tracer from the brain by P-glycoprotein [2]: consistently washed out of the brain by P-glycoprotein
